Data taken from PMC9085577, “Discovery of a Potent and Orally Active Dual GPBAR1/CysLT1R Modulator for the Treatment of Metabolic Fatty Liver Disease” (Frontiers in Pharmacology, 2022).
In brackets after ≈: the same amount, converted by molar mass.

Test: Aqueous solubility in PBS pH 7.4 by LC-MS/MS
Type: physicochemical
Method: Solubility. Ten microliters of a 10 mM solution of tested compounds were diluted either in 490 µL of PBS pH 7.4 or MeOH and agitated for 24 h at 250 rpm. The obtained solutions were first centrifuged for 5 min at 4,000 rpm and then further diluted adding 10 μL of each sample to 490 µL of MeOH. Samples were analyzed by LC-MS/MS and the ratio of mass signal area obtained in PBS and in organic solvent was then measured and used to determine solubility.

Solubility: good | solubility at 24 h (PBS pH 7.4): 66 µM (≈ 23.5 µg/mL)
Compound: O=C(O)c1cccc(-c2ccc(OCc3ccc4ccccc4n3)cc2)c1 [Compound 2, 4'-(quinolin-2-ylmethoxy)-[1,1′-biphenyl]-3-carboxylic acid]
